# Measured values from article PMC9569529, “Safe and Efficient Sigma1 Ligand: A Potential Drug Candidate for Multiple Sclerosis” (International Journal of Molecular Sciences, 2022).
# How the values were obtained:
# [1] = tested on: dizocilpine-induced learning deficits; assay: Dizocilpine-induced learning deficits, Y-maze spontaneous alternation; assay type: in vivo, male Swiss mice
# Description: The activity of compound 7i was evaluated in regard to its ability to reverse dizocilpine-induced learning deficits. Two behavioral tests were performed by Amylgen (Montferrier-sur-Lez, France) on male Swiss mice (aged 6–9 weeks). All compounds (7i and controls) were intraperitoneally injected.
# Animals were tested for spontaneous alternation performance in the Y-maze, an index of spatial working memory. Made of grey polyvinylchloride, the Y-maze has an arm which is 40 cm long, 13 cm high and 3 cm wide at the bottom and 10 cm wide at the top, converging at an equal angle. Each mouse was placed at the end of one arm and allowed to move freely through the maze during an 8-min session. The series of arm entries, including possible returns into the same arm, were checked visually. An alternation was defined as entries into all three arms on consecutive occasions. The number of maximum alternations was therefore the total number of arm entries minus two, and the percentage of alternation was calculated as: (actual alternations/maximum alternations) × 100. Parameters included the percentage of alternation (memory index) and the total number of arm entries (exploration index). Animals showing extreme behavior (alternation < 20% or >90% or number of arm entries < 10) are usually discarded from the calculations. […] Step-through latency (the latency in time spent to enter the dark compartment) and the number of vocalizations were recorded. […] Step-through latency was recorded up to 300 s. When either the mouse entered the dark compartment or 300 s had elapsed (they were therefore manually placed in it), escape latency (latency to exit from the dark compartment) was recorded with a value of up to 300 s. […]
# S1R = molecular target: T1, S1R (Homo sapiens, UniProt Q99720); set-up: method as in PMID 28756263; conditions: selectivity index; cited from earlier work
# T1 construct: host or cells: Jurkat cell membranes
# S. typhimurium TA102 = conditions: Salmonella typhimurium
# [2] = tested on: experimental autoimmune encephalomyelitis (EAE); assay: Relapsing EAE (PLP 139-151), curative protocol; assay type: in vivo, female SJL/J mice
# T1 sequence (Q99720 whole entry): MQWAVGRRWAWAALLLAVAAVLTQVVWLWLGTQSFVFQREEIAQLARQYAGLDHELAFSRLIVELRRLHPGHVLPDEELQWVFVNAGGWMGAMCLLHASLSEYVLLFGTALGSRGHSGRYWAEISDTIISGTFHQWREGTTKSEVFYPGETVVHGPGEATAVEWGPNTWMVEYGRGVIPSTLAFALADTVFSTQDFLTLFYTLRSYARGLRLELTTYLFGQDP
smiles,measurement,setting,value
CN(CCCNC(=O)c1ccc(Cl)cc1)Cc1ccccc1 [compound 7i],"dizocilpine-induced learning deficits, Y-maze spontaneous alternation","[1]; 0.5 mg/kg i.p., dizocilpine 0.15 mg/kg",significantly attenuated
same,beneficial effect in Y-maze with NE-100 treatment,[1]; plus NE-100 at 3 mg/kg i.p.,prevented
same,Ki Ratio S2R/S1R,S1R,60
same,Ames TA102 +S9 (Mean revertants/well per title),S. typhimurium TA102,1.0
same,Ames TA102 −S9 (Mean revertants/well per title),S. typhimurium TA102,0.7
same,EAE global evolution,"[2]; 0.5 mg/kg i.p. daily for 15 days from score 2, followed 80 days",significantly reduced
same,EAE course,[2]; 0.5 mg/kg p.o. daily for 15 days from score 2,significant decrease
same,effect on EAE development after BD-1047 pretreatment,[2]; BD-1047 10 mg/kg i.p. 20 min before 7i,blocked
same,second relapse,"[2]; i.p., 0.5 and 1 mg/kg daily for 15 days",No second relapse
same,effect on clinical score during treatment (first relapse),"[2]; i.p., 0.5 and 1 mg/kg, more pronounced at 1 mg/kg",visible from the first days of treatment
same,maximal clinical grade during the entire disease course,[2]; orally treated animals,≤ 2 grade
same,clinical grade reached during the 15 days of administration,[2]; p.o. 0.5 mg/kg,1 grade
same,rebound effect after end of treatment,"[2]; p.o., as in i.p. administration",No rebound effect
